Test results reported in patent publication US20210236529A1, “MULTI-TARGETED COMPOSITIONS FOR MITIGATING ACUTE RESPIRATORY DISTRESS SYNDROME” (priority 2020, published 2021).

Experiments:
IL-6 = IL-6 in conditioned medium of 3D ciliated airway tissues, sandwich ELISA; format: cell-based, human; settings: LPS 1 μg/ml, 72 h total contact
Procedure: (§1) A second study was undertaken to assess the ability of the select hydrolysable tannins to inhibit select pro-inflammatory interleukins, namely IL-6 and IL-8. The study was conducted using reconstituted human ciliated airway tissue. Specifically, Ninety Six 3D ciliated airway tissues (cat. #34839) were obtained from Mattek (Ashland, Mass.) and were cultured in Assay Media (cat. #031921JRD, MatTek). The tissue samples were rinsed twice before incubation with the MTT reagents. The test materials themselves were solubilized and diluted in sterile distilled water and added to the feeder chamber medium contacting the basal side of the tissues on Day 1. The test material was also applied topically on Day 2 together with LPS (added where indicated at 1 μg/ml, from Escherichia coli 0113, Cayman Chemical Company, Ann Arbor, Mich.) for total contact time of 72 h. The experiments were tested in triplicates or duplicates.
(§2) Following the exposures to the test materials, 1L-6 and IL-8 were quantified in the tissue culture—conditioned medium by sandwich ELISA (Table 4A and 4B). The effect of the test materials on mitochondrial metabolism was measured by the MTT assay, which quantifies the activity of mitochondrial dehydrogenases, such as succinate dehydrogenase, implicated in the respiratory electron transport chain in mitochondria. The MTT conversion values were also used to standardize the IL-6, IL-8 output data to tissue viability.

IL-8 = IL-8 in conditioned medium of 3D ciliated airway tissues, sandwich ELISA; format: cell-based, human; settings: LPS 1 μg/ml, 72 h total contact
Procedure: as §1, §2

[1] = target: SARS-CoV-2 RNA Polymerase (RdRp) (Severe acute respiratory syndrome coronavirus 2, UniProt P0DTD1); test: SARS-CoV-2 RNA Polymerase (RdRp) Assay Kit, fluorescent enzymatic activity in vitro; format: biochemical; settings: for RdRp activity, % of Control: vs water control; for inhibition of SARS-CoV-2 RNA replication (in words): summary of Tables 1 and 2
Covid-19 patients = settings: after treatment; preliminary findings, 21 patients; cited from earlier work
[2] = 10 μgm/ml, standardized to MTT viability
[3] = 10 μg/ml, standardized to MTT viability
[4] = 100 μg test material (0.209-0.213 μM)

O=C(O)C[C@H]1C(=O)O[C@H]2[C@H](OC(=O)c3cc(O)c(O)c(O)c3)[C@@H](OC(=O)c3cc(O)c(O)c4c3[C@H]1[C@H](O)C(=O)O4)[C@H](OC(=O)c1cc(O)c(O)c(O)c1)O[C@@H]2COC(=O)c1cc(O)c(O)c(O)c1 [Chebulinic acid]
IL-6, % of Control (IL-6; [2]): 131 % of Control
IL-6, % of Control (IL-6; 50 μgm/ml): 96 % of Control
IL-6, % of Control (IL-6; 200 μgm/ml): 18 % of Control
IL-8, % of Control (IL-8; [3]): 114 % of Control
IL-8, % of Control (IL-8; 50 μg/ml): 109 % of Control
IL-8, % of Control (IL-8; 200 μg/ml): 101 % of Control
RdRp activity, % of Control ([1]; 10 μg test material): 25 % of Control
RdRp activity, % of Control ([1]; 50 μg test material): 14 % of Control
RdRp activity, % of Control [1, 4]: 7 % of Control
inhibition of SARS-CoV-2 RNA replication (in words) [1]: marked inhibition

O=C(OC[C@H]1O[C@@H](OC(=O)c2cc(O)c(O)c(O)c2)[C@H](OC(=O)c2cc(O)c(O)c(O)c2)[C@@H](OC(=O)c2cc(O)c(O)c(O)c2)[C@@H]1OC(=O)c1cc(O)c(O)c(O)c1)c1cc(O)c(O)c(O)c1 [Pentagallolyl glucose, Pentagalloyl glucose]
IL-6, % of Control (IL-6; [2]): 91 % of Control
IL-6, % of Control (IL-6; 50 μgm/ml): 64 % of Control
IL-6, % of Control (IL-6; 200 μgm/ml): 0 % of Control
IL-8, % of Control (IL-8; [3]): 100 % of Control
IL-8, % of Control (IL-8; 50 μg/ml): 104 % of Control
IL-8, % of Control (IL-8; 200 μg/ml): 0 % of Control
RdRp activity, % of Control ([1]; 10 μg test material): 32 % of Control
RdRp activity, % of Control ([1]; 50 μg test material): 12 % of Control
RdRp activity, % of Control [1, 4]: 4 % of Control
inhibition of SARS-CoV-2 RNA replication (in words) [1]: marked inhibition

Actemra: a humanized anti-IL-6R monoclonal antibody
patients experiencing a reduced need for supplemental oxygen (Covid-19 patients): 75%

O=C(O)C[C@@H]1C(=O)O[C@H]2[C@@H]3OC(=O)c4cc(O)c(O)c(O)c4-c4c(cc(O)c(O)c4O)C(=O)OC[C@H]2O[C@@H](OC(=O)c2cc(O)c(O)c(O)c2)[C@@H]3OC(=O)c2cc(O)c(O)c3c2[C@H]1[C@H](O)C(=O)O3 [Chebulagic acid]
IL-6, % of Control (IL-6; [2]): 70 % of Control
IL-6, % of Control (IL-6; 50 μgm/ml): 40 % of Control
IL-6, % of Control (IL-6; 200 μgm/ml): 5 % of Control
IL-8, % of Control (IL-8; [3]): 112 % of Control
IL-8, % of Control (IL-8; 50 μg/ml): 100 % of Control
IL-8, % of Control (IL-8; 200 μg/ml): 66 % of Control
RdRp activity, % of Control ([1]; 10 μg test material): 35 % of Control
RdRp activity, % of Control ([1]; 50 μg test material): 10 % of Control
RdRp activity, % of Control [1, 4]: 8 % of Control
inhibition of SARS-CoV-2 RNA replication (in words) [1]: marked inhibition

Cc1cccc(C)c1OCC(=O)N[C@@H](Cc1ccccc1)[C@@H](O)C[C@H](Cc1ccccc1)NC(=O)[C@H](C(C)C)N1CCCNC1=O [Lopinavir, reference compound]
IL-6, % of Control (IL-6; 10 μM): 73 % of Control
IL-6, % of Control (IL-6; 50 μM): 81 % of Control
IL-8, % of Control (IL-8; 10 μM): 103 % of Control
IL-8, % of Control (IL-8; 50 μM): 104 % of Control
EC50 [1]: > 50 µM
RdRp activity, % of Control ([1]; 10 μM): 91 % of Control
RdRp activity, % of Control ([1]; 50 μM): 80 % of Control
inhibition of SARS-CoV-2 RNA replication (in words) [1]: neither Lopinavir, a commercial inhibitor of viral RNA replication, nor chebulic acid manifested effective inhibition

O=C(O)C[C@H](C(=O)O)[C@H]1c2c(cc(O)c(O)c2O)C(=O)O[C@@H]1C(=O)O [Chebulic acid, reference compound]
IL-6, % of Control (IL-6; [2]): 68 % of Control
IL-6, % of Control (IL-6; 50 μgm/ml): 106 % of Control
IL-6, % of Control (IL-6; 100 μgm/ml): 78 % of Control
IL-8, % of Control (IL-8; [3]): 96 % of Control
IL-8, % of Control (IL-8; 50 μg/ml): 108 % of Control
IL-8, % of Control (IL-8; 100 μg/ml): 111 % of Control
RdRp activity, % of Control ([1]; 10 μg test material): 105 % of Control
RdRp activity, % of Control ([1]; 50 μg test material): 96 % of Control
inhibition of SARS-CoV-2 RNA replication (in words) [1]: neither Lopinavir, a commercial inhibitor of viral RNA replication, nor chebulic acid manifested effective inhibition
